Experimental data reported in ChEMBL document CHEMBL1201862, “PubChem BioAssay data set” (2004).
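These data come from cells grown in 96-well plates and exposed to compound for 48 hours at five concentrations. GI50: concentration for 50% inhibition of growth.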 Calls of active or inactive are those of the source. Cut-off read from the data, not from the text of the source: active = GI50 up to about 1.1 µM and inactive = higher.

Assays:
Test in all cases: growth of human tumour cells (NCI), 48 h
786-0 = tested on: 786-0
A498 = tested on: A498
A549 = tested on: A549
ACHN = tested on: ACHN
BT-549 = tested on: BT-549
CAKI-1 = tested on: CAKI-1
CCRF-CEM = tested on: CCRF-CEM
COLO 205 = tested on: COLO 205
DU-145 = tested on: DU-145
EKVX = tested on: EKVX
HCC 2998 = tested on: HCC 2998
HCT-116 = tested on: HCT-116
HCT-15 = tested on: HCT-15
HL-60 = tested on: HL-60
HOP-62 = tested on: HOP-62
HOP-92 = tested on: HOP-92
HT-29 = tested on: HT-29
Hs-578T = tested on: Hs-578T
IGROV-1 = tested on: IGROV-1
K562 = tested on: K562
KM12 = tested on: KM12
LOX IMVI = tested on: LOX IMVI
M14 = tested on: M14
MCF7 = tested on: MCF7
MDA-MB-231 = tested on: MDA-MB-231
MDA-MB-435 = tested on: MDA-MB-435
MOLT-4 = tested on: MOLT-4
Malme-3M = tested on: Malme-3M
NCI-H226 = tested on: NCI-H226
NCI-H23 = tested on: NCI-H23
NCI-H460 = tested on: NCI-H460
NCI-H522 = tested on: NCI-H522
NCI/ADR-RES = tested on: NCI/ADR-RES
OVCAR-3 = tested on: OVCAR-3
OVCAR-4 = tested on: OVCAR-4
OVCAR-5 = tested on: OVCAR-5
OVCAR-8 = tested on: OVCAR-8
PC-3 = tested on: PC-3
RPMI-8226 = tested on: RPMI-8226
RXF 393 = tested on: RXF 393
SF-268 = tested on: SF-268
SF-295 = tested on: SF-295
SF-539 = tested on: SF-539
SK-MEL-28 = tested on: SK-MEL-28
SK-MEL-2 = tested on: SK-MEL-2
SK-MEL-5 = tested on: SK-MEL-5
SK-OV-3 = tested on: SK-OV-3
SN12C = tested on: SN12C
SNB-19 = tested on: SNB-19
SNB-75 = tested on: SNB-75
SR = tested on: SR
SW-620 = tested on: SW-620
T47D = tested on: T47D
TK-10 = tested on: TK-10
U-251 = tested on: U-251
UACC-257 = tested on: UACC-257
UACC-62 = tested on: UACC-62
UO-31 = tested on: UO-31
MDA-N = tested on: MDA-N

For `CCN(CC)CC[S+]([O-])c1c2cc(OC)ccc2nc2ccc(OC)cc12` (centres undefined), the GI50 (786-0) was 2.02 µM (inactive), the GI50 (A498) was 16.3 µM (inactive) and the GI50 (A549) was 24.9 µM (inactive). The GI50 (ACHN) was 2.38 µM (inactive), the GI50 (BT-549) was 15.8 µM (inactive) and the GI50 (CAKI-1) was 9.75 µM (inactive). For the same molecule, the GI50 (CCRF-CEM) was 3.14 µM (inactive), the GI50 (COLO 205) was 1.88 µM (inactive) and the GI50 (DU-145) was 1.91 µM (inactive). The GI50 (EKVX) was 15 µM (inactive), the GI50 (HCC 2998) was 18.3 µM (inactive) and the GI50 (HCT-116) was 2.19 µM (inactive). For the same molecule, the GI50 (HCT-15) was 3.21 µM, the GI50 (HL-60) was 3.67 µM (inactive) and the GI50 (HOP-62) was 19.4 µM (inactive). The GI50 (HOP-92) was 3.28 µM (inactive), the GI50 (HT-29) was 3.44 µM (inactive) and the GI50 (Hs-578T) was 3.24 µM (inactive). For the same molecule, the GI50 (IGROV-1) was 2.54 µM (inactive), the GI50 (K562) was 5.78 µM (inactive) and the GI50 (KM12) was 20.6 µM (inactive). For the same molecule, the GI50 (LOX IMVI) was 3.23 µM (inactive), the GI50 (M14) was 9.55 µM (inactive) and the GI50 (MCF7) was 2.42 µM (inactive). The GI50 (MDA-MB-231) was 13.6 µM (inactive), the GI50 (MDA-MB-435) was 9.46 µM (inactive) and the GI50 (MOLT-4) was 2.31 µM (inactive). For the same molecule, the GI50 (Malme-3M) was 0.865 µM (active), the GI50 (NCI-H226) was 18.1 µM (inactive) and the GI50 (NCI-H23) was 7.64 µM (inactive). The GI50 (NCI-H460) was 27.7 µM (inactive), the GI50 (NCI-H522) was 0.603 µM (active) and the GI50 (NCI/ADR-RES) was 19.6 µM (inactive). For the same molecule, the GI50 (OVCAR-3) was 3.39 µM (inactive), the GI50 (OVCAR-4) was 14.4 µM (inactive) and the GI50 (OVCAR-5) was 16.6 µM (inactive). For the same molecule, the GI50 (OVCAR-8) was 3.83 µM (inactive), the GI50 (PC-3) was 12 µM (inactive) and the GI50 (RPMI-8226) was 2.63 µM (inactive). The GI50 (RXF 393) was 7.33 µM (inactive), the GI50 (SF-268) was 7.93 µM (inactive) and the GI50 (SF-295) was 21.8 µM (inactive). The GI50 (SF-539) was 2.32 µM (inactive), the GI50 (SK-MEL-28) was 14.7 µM (inactive) and the GI50 (SK-MEL-2) was 18.6 µM (inactive). The GI50 (SK-MEL-5) was 16.5 µM (inactive), the GI50 (SK-OV-3) was 21.6 µM (inactive) and the GI50 (SN12C) was 4.49 µM (inactive). The GI50 (SNB-19) was 22.7 µM (inactive), the GI50 (SNB-75) was 19.6 µM (inactive) and the GI50 (SR) was 2.72 µM (inactive). For the same molecule, the GI50 (SW-620) was 3.03 µM (inactive), the GI50 (T47D) was 1.95 µM (inactive) and the GI50 (TK-10) was 5.56 µM (inactive). For the same molecule, the GI50 (U-251) was 20 µM (inactive), the GI50 (UACC-257) was 5.08 µM (inactive) and the GI50 (UACC-62) was 17.8 µM (inactive). The GI50 (UO-31) was 2.25 µM (inactive).
For `CCCCNc1nc(NC2OCC(OC(C)=O)C(OC(C)=O)C2OC(C)=O)c(N=O)c(=O)n1C` (centres undefined), the GI50 (786-0) was > 10 µM (inactive), the GI50 (A498) was > 10 µM (inactive) and the GI50 (A549) was > 10 µM (inactive). The GI50 (ACHN) was > 10 µM (inactive), the GI50 (BT-549) was > 10 µM (inactive) and the GI50 (CAKI-1) was > 10 µM (inactive). The GI50 (CCRF-CEM) was > 10 µM (inactive), the GI50 (COLO 205) was > 10 µM (inactive) and the GI50 (DU-145) was > 10 µM (inactive). The GI50 (EKVX) was > 10 µM (inactive), the GI50 (HCC 2998) was > 10 µM (inactive) and the GI50 (HCT-116) was > 10 µM (inactive). The GI50 (HCT-15) was over 10 µM, the GI50 (HL-60) was > 10 µM (inactive) and the GI50 (HOP-62) was > 10 µM (inactive). The GI50 (HOP-92) was > 10 µM (inactive), the GI50 (HT-29) was > 10 µM (inactive) and the GI50 (Hs-578T) was > 10 µM (inactive). The GI50 (IGROV-1) was > 10 µM (inactive), the GI50 (KM12) was > 10 µM (inactive) and the GI50 (LOX IMVI) was > 10 µM (inactive). For the same molecule, the GI50 (M14) was > 10 µM (inactive), the GI50 (MCF7) was > 10 µM (inactive) and the GI50 (MDA-MB-231) was > 10 µM (inactive). For the same molecule, the GI50 (MDA-MB-435) was > 10 µM (inactive), the GI50 (MOLT-4) was > 10 µM (inactive) and the GI50 (Malme-3M) was > 10 µM (inactive). The GI50 (NCI-H226) was > 10 µM (inactive), the GI50 (NCI-H23) was > 10 µM (inactive) and the GI50 (NCI-H460) was > 10 µM (inactive). For the same molecule, the GI50 (NCI-H522) was > 10 µM (inactive), the GI50 (NCI/ADR-RES) was > 10 µM (inactive) and the GI50 (OVCAR-3) was > 10 µM (inactive). For the same molecule, the GI50 (OVCAR-4) was > 10 µM (inactive), the GI50 (OVCAR-5) was > 10 µM (inactive) and the GI50 (OVCAR-8) was > 10 µM (inactive). The GI50 (PC-3) was > 10 µM (inactive), the GI50 (RPMI-8226) was > 10 µM (inactive) and the GI50 (RXF 393) was > 10 µM (inactive). The GI50 (SF-268) was > 10 µM (inactive), the GI50 (SF-295) was > 10 µM (inactive) and the GI50 (SF-539) was > 10 µM (inactive). The GI50 (SK-MEL-28) was > 10 µM (inactive), the GI50 (SK-MEL-2) was > 10 µM (inactive) and the GI50 (SK-MEL-5) was > 10 µM (inactive). The GI50 (SK-OV-3) was > 10 µM (inactive), the GI50 (SN12C) was > 10 µM (inactive) and the GI50 (SNB-19) was > 10 µM (inactive). The GI50 (SNB-75) was > 10 µM (inactive), the GI50 (SR) was > 10 µM (inactive) and the GI50 (SW-620) was > 10 µM (inactive). For the same molecule, the GI50 (T47D) was > 10 µM (inactive), the GI50 (TK-10) was > 10 µM (inactive) and the GI50 (U-251) was > 10 µM (inactive). The GI50 (UACC-257) was > 10 µM (inactive) and the GI50 (UACC-62) was > 10 µM (inactive).
With `NC1=NC(=O)[C@H](Cc2c[nH]c3ccccc23)N1C(=O)OCc1ccccc1` the GI50 (786-0) was > 100 µM (inactive), the GI50 (A498) was 61 µM (inactive) and the GI50 (ACHN) was > 100 µM (inactive). The GI50 (BT-549) was 38.5 µM (inactive), the GI50 (CAKI-1) was > 100 µM (inactive) and the GI50 (COLO 205) was > 100 µM (inactive). The GI50 (DU-145) was 93.8 µM (inactive), the GI50 (EKVX) was 45.3 µM (inactive) and the GI50 (HCC 2998) was > 100 µM (inactive). The GI50 (HCT-116) was 57.9 µM (inactive), the GI50 (HCT-15) was over 100 µM and the GI50 (HL-60) was 31.7 µM (inactive). For the same molecule, the GI50 (HOP-62) was > 100 µM (inactive), the GI50 (HT-29) was > 100 µM (inactive) and the GI50 (Hs-578T) was 44.9 µM (inactive). For the same molecule, the GI50 (IGROV-1) was 77.6 µM (inactive), the GI50 (K562) was 30.8 µM (inactive) and the GI50 (KM12) was > 100 µM (inactive). The GI50 (LOX IMVI) was 68.5 µM (inactive), the GI50 (MCF7) was 81.8 µM (inactive) and the GI50 (MDA-MB-231) was > 100 µM (inactive). For the same molecule, the GI50 (MDA-MB-435) was 56.9 µM (inactive), the GI50 (MDA-N) was > 100 µM (inactive) and the GI50 (MOLT-4) was 28.7 µM (inactive). For the same molecule, the GI50 (Malme-3M) was 68.7 µM (inactive), the GI50 (NCI-H226) was 84.5 µM (inactive) and the GI50 (NCI-H23) was 38.1 µM (inactive). The GI50 (NCI-H460) was 93.8 µM (inactive), the GI50 (NCI-H522) was 37 µM (inactive) and the GI50 (NCI/ADR-RES) was > 100 µM (inactive). The GI50 (OVCAR-3) was 59.7 µM (inactive), the GI50 (OVCAR-4) was 51.8 µM (inactive) and the GI50 (OVCAR-5) was > 100 µM (inactive). The GI50 (OVCAR-8) was 46 µM (inactive), the GI50 (PC-3) was 46 µM (inactive) and the GI50 (RXF 393) was 45.2 µM (inactive). For the same molecule, the GI50 (SF-268) was 73.8 µM (inactive), the GI50 (SF-295) was 75.3 µM (inactive) and the GI50 (SK-MEL-28) was < 0.01 µM (active). The GI50 (SK-MEL-2) was > 100 µM (inactive), the GI50 (SK-MEL-5) was 40.3 µM (inactive) and the GI50 (SN12C) was 91 µM (inactive). For the same molecule, the GI50 (SNB-19) was > 100 µM (inactive), the GI50 (SNB-75) was 50.9 µM (inactive) and the GI50 (SW-620) was > 100 µM (inactive). The GI50 (TK-10) was > 100 µM (inactive), the GI50 (U-251) was 69.7 µM (inactive) and the GI50 (UACC-257) was 49.3 µM (inactive). The GI50 (UACC-62) was 53.8 µM (inactive) and the GI50 (UO-31) was 38.1 µM (inactive).
